Test results reported in patent US20070004735A1, “Method for inhibiting the replication of herpes viruses” (priority 2003, published 2007).

Assays:
Format in all cases: cell-based, Human cytomegalovirus
[1] = tested on: HCMV AD169 clone with mutation in UL86 K1338N; assay: Susceptibility (IC50) of resistant HCMV AD169 clone K1338N; details: Human betaherpesvirus 5, read-out: IC 50, K1338N
Experimental: (§1) The test compounds are employed as 50 millimolar (mM) solutions in dimethyl sulfoxide (DMSO). Ganciclovir®, Foscarnet® and Cidofovir® are used as reference compounds. After addition of in each case 2 μl of the 50, 5, 0.5 and 0.05 mM DMSO stock solutions to 98 μl portions of cell culture medium in row 2 A-H for duplicate determinations, 1:2 dilutions are carried out with 50 μl portions of medium up to row 11 of the 96-well plate. The wells in rows 1 and 12 each contain 50 μl of medium. 150 μl of a suspension of 1×10^4 cells (human prepuce fibroblasts [NHDF]) are then pipetted into each of the wells (row 1=cell control) and, in rows 2-12, a mixture of HCMV-infected and uninfected NHDF cells (M.O.I.=0.001-0.002), i.e. 1-2 infected cells per 1000 uninfected cells. Row 12 (without substance) serves as virus control. The final test concentrations are 250-0.0005 μM. The plates are incubated at 37° C./5% CO2 for 6 days, i.e. until all the cells are infected in the virus controls (100% cytopathogenic effect [CPE]). The wells are then fixed and stained by adding a mixture of formalin and Giemsa's dye (30 minutes), washed with double-distilled water and dried in a drying oven at 50° C. The plates are then assessed visually using an overhead microscope (plaque multiplier from Technomara).
(§2) For this purpose, NHDF cells are seeded in tissue culture vessels. 5×10^3 cells per well are seeded in 96-well plates and infected with cell-free HCMV AD169 with an moi of 0.03. The infections are cultivated under substance pressure which corresponds to 10 times the IC50 of the substance. Preferably, 30-100 96-well plates inoculated as described are made up. […] Finally, viral stocks are produced as described above and frozen. Serial ten-fold dilution of the virus-infected cells or of the cell culture supernatant of the virus-infected cells is followed by determination of the titer on 24-well plates of confluent NHDF cells after vital staining with neutral red. Finally, the susceptibility to various substances (IC50 determination) is determined as described above.
(§3) The HCMVAD169 mutants selected as described above are grown in vitro on human embryonic prepuce fibroblasts (NHDF cells) under substance pressure (10×IC50 HCMVAD169). After infection of the NHDF cells with a multiplicity of infection (M.O.I) of 0.01, the virus-infected cells are harvested 5-10 days later, and the total DNA is isolated from these cells with the aid of established standard methods (e.g. phenol extraction and ethanol precipitation). Qiagen Sequencing Services (Qiagen, Hilden) determined, after amplification of the viral UL86 gene by PCR, the DNA sequence, which was then transcribed into protein sequence. Compared with the initial strain HCMV AD169, the differences shown in table 2 were detectable in the protein sequence of the major capsid protein (UL86) in the resistant viruses. The IC50 values [μM] of various substances on these mutants compared with the initial strain are likewise indicated. (n.d.=not measured). […] Depending on the nature of the substance, certain mutations lead to various extents of resistance.

[2] = tested on: HCMV AD169 clone with mutation in UL86 Q1223R; assay: Susceptibility (IC50) of resistant HCMV AD169 clone Q1223R; details: Human betaherpesvirus 5, read-out: IC 50, Q1223R
Experimental: as §1, §2, §3

[3] = tested on: HCMV AD169 clone with mutation in UL86 D441N; assay: Susceptibility (IC50) of resistant HCMV AD169 clone D441N; details: Human betaherpesvirus 5, read-out: IC 50, D441N
Experimental: as §1, §2, §3

[4] = tested on: HCMV AD169 clone with mutation in UL86 E1320Q; assay: Susceptibility (IC50) of resistant HCMV AD169 clone E1320Q; details: Human betaherpesvirus 5, read-out: IC 50, E1320Q
Experimental: as §1, §2, §3

wild-type HCMV AD169 = assay: Susceptibility (IC50) of HCMV AD169 wild-type; details: Human betaherpesvirus 5, NHDF cells, read-out: IC 50, Wild-type
Experimental: as §1, §2, §3

[5] = tested on: HCMV AD169 clone with mutation in UL86 P1189T; assay: Susceptibility (IC50) of resistant HCMV AD169 clone P1189T; details: Human betaherpesvirus 5, read-out: IC 50, P1189T
Experimental: as §1, §2, §3

[6] = tested on: HCMV AD169 clone with mutation in UL86 R682H; assay: Susceptibility (IC50) of resistant HCMV AD169 clone R682H; details: Human betaherpesvirus 5, read-out: IC 50, R682H
Experimental: as §1, §2, §3

[7] = tested on: HCMV AD169 clone with mutation in UL86 R435C; assay: Susceptibility (IC50) of resistant HCMV AD169 clone R435C; details: Human betaherpesvirus 5, read-out: IC 50, R435C
Experimental: as §1, §2, §3

[8] = tested on: HCMV AD169 clone with mutation in UL86 A689T; assay: Susceptibility (IC50) of resistant HCMV AD169 clone A689T; details: Human betaherpesvirus 5, read-out: IC 50, A689T
Experimental: as §1, §2, §3

[9] = tested on: HCMV AD169 clone with mutation in UL86 P586T; assay: Susceptibility (IC50) of resistant HCMV AD169 clone P586T; details: Human betaherpesvirus 5, read-out: IC 50, P586T
Experimental: as §1, §2, §3

Structure (SMILES) | IC50 [1] [µM] | IC50 [2] [µM] | IC50 [3] [µM] | IC50 [4] [µM] | IC50 (wild-type HCMV AD169) [µM] | IC50 [5] [µM] | IC50 [6] [µM] | IC50 [7] [µM] | IC50 [8] [µM] | IC50 [9] [µM]
CC1(C)CC(=O)NN=C1c1cccc(NC(=O)Nc2ccc(F)cc2F)c1 [Example 1, N-(2,4-Difluorophenyl)-N′-[3-(4,4-dimethyl-6-oxo-1,4,5,6-tetrahydro-3-pyridazinyl)phenyl]urea] | > 125 | 20 | 20 | > 125 | 1 | > 125 | 20 | 1.5 | 6 | 4
CC1(C)CC(=O)NN=C1c1cc(NC(=O)Nc2cc(F)ccc2F)ccc1O [Example 2, N-(2,5-Difluorophenyl)-N′-[3-(4,4-dimethyl-6-oxo-1,4,5,6-tetrahydro-3-pyridazinyl)-4-hydroxyphenyl]urea] | > 125 | 6 | 1.5 | 13 | 0.4 | > 125 | 3 | 0.5 | 1 | 2
CCCCC(=O)Nc1ccc(NC(=O)Nc2ccc(F)c(Cl)c2)cc1 [Example 4, N-[4-({[(3-Chloro-4-fluorophenyl)amino]carbonyl}amino)phenyl]pentanamide] | > 60 | 1 | 0.5 | 2 | 0.08 | 2 | 0.5 | > 60 | 0.5 | 0.5
